From patent US20250009740A1, “METHODS AND COMPOSITIONS FOR TARGETING ALTERNATIVE METABOLISM ALONG WITH FLT3 INHIBITOR-MEDIATED ANTILEUKEMIC ACTIONS” (Ohio State Innovation Foundation, priority 2021, published 2025)

What was measured:
MOLM-13 luciferase cells = assay: MOLM-13-Luc+ FLT3-ITD AML xenograft in NCG mice; type: in vivo, mouse; conditions: 10 mg/kg dinaciclib weekly i.p., 30 mg/kg gilteritinib daily oral gavage, or both; vehicle 24 days
Experimental: (A) NCG mice were engrafted with MOLM-13 cells expressing luciferase and treated with vehicle, 10 mg/kg dinaciclib weekly, 30 mg/kg gilteritinib daily, or dinaciclib/gilteritinib combination.
Animal Studies All animal studies were carried out under protocols approved by The Ohio State University Institutional Animal Care and Use Committee (IACUC). 1×10^5 MOLM-13 luciferase cells were injected via tail vein into male NOD-Prkdc^em26Cd52Il2rg^em26Cd22/NjuCrl (NCG) from the Charles River Laboratory. On day 4 post-engraftment, mice were randomized to treatment arms. Mice received the following drugs and doses: weekly intraperitoneal injections of 10 mg/kg dinaciclib (MedChemExpress HY-10492) in 20% cyclodextrin (CTD THPB-P) diluted just prior to injection, daily oral gavage of 30 mg/kg gilteritinib (MedChemExpress HY-1432) in 6% drug w/w gelucire 44/14 (Gattefosse, France) aliquoted and mixed with drug weekly, oral gavage of vehicle control (gelucire 44/14), or combination therapy at single-agent regimens.

MV4-11 cells = assay: Pairwise dose combination synergy, MTS cell viability, HSA analysis; type: cell-based
Experimental: (§1) For dinaciclib, cells were treated for 2 hours with the drug before it was washed off and all other drugs were incubated with cells for 48-96 hours. Cell viability was measured with MTS. HSA analysis was used to determine regions of synergy. […] MOLM-13 and MV4-11 cells were treated with vehicle, 50 nM or 100 nM brequinar in combination with vehicle, 4 nM or 8 nM gilteritinib for 96 hours before cells were fixed and permeabilized for intracellular BV421-Ki67 staining and flow cytometry analysis. […] Primary cells were treated with vehicle, single agents or drug combination before cell apoptosis was measured with Annexin V/PI staining. Results are shown as mean±SEM of 3 biological replicates. […] Bone marrow cells from 3 FLT3-ITD patients, 2 FLT3-WT patients and 2 healthy donors were seeded into Methocult at 50,000 cells per condition with vehicle, single agents or drug combinations. The numbers of colonies were quantified for 1st and 2nd platings after 14 days post seeding. Results are shown as means of 2 biological replicates. * p<0.05 in comparison with EPZ015666, dinaciclib or brequinar alone.
(§2) Next, it was determined whether pharmacologic inhibition of CDK9, DHODH or PRMT5, using commercially available inhibitors (brequinar for DHODH, dinaciclib for CDK1/2/5/9, and EPZ015666 for PRMT5) is synergistic with gilteritinib in AML cells.

[1] = test system: shRNA-stable MOLM-13 cells; assay: Annexin V/PI flow cytometry of shRNA-stable cells treated with gilteritinib; type: cell-based, human; conditions: 8 nM gilteritinib, 120 hours
Experimental: (A-D) Knockdown efficiency of selected targets by shRNA as detected by qPCR and Western blotting; GAPDH or β-actin serves as loading control. N=2. *p<0.05; **p<0.01; (E-H) Dose-response curves of shCDK9, shDHODH, shPRMT5 and shCDK7-stable MOLM-13 cells in response to 120-hour gilteritinib treatment. Cell viability was measured with MTS. Results are shown as mean±SEM of 4 technical replicates and 3-4 biological replicates. ***p-value<0.0001; ns=not significant. I) Knockdown of CDK9, PRMT5 or DHODH but not CDK7 with shRNA increases the frequency of apoptotic AML cell lines with gilteritinib. Parental, scrambled or gene-targeting shRNA-stable MOLM-13 cells were treated with 8 nM gileritinib for 120 hours and stained with Annexin V/PI for flow cytometry analysis. Data are shown as mean±SEM of % population from triplicates.
DHODH, CDK9 and PRMT5 genes were selected for validation, in light of their strong synergistic interactions with gilteritinib and availability of clinical grade inhibitors. MOLM-13 cells were transduced with shRNA targeting each of these genes and knockdown efficiencies were confirmed via qPCR and Western Blotting (FIG. 2A-D). Scrambled or gene-targeting shRNA transduced cells were treated with gilteritinib (2-25 nM dose range) for 120 hours followed by MTS analysis to quantify cell proliferation.

MOLM-13 cells [2] = assay: Pairwise dose combination synergy, MTS cell viability, HSA analysis; type: cell-based, human
Experimental: as §1, §2

MOLM-13 cells [3] = assay: Proliferation assay of FLT3 inhibitor with telaglenastat, HSA analysis; type: cell-based, human; conditions: MOLM-13, 48 hours
Experimental: Proliferation assay of a range of doses of midostaurin or gilteritinib with telaglenstat on MOLM-13 cells treated for 48 hours. Highest single agent (HSA) analysis was used to determine regions of synergy.
FLT3-ITD inhibition reduces glutaminolysis by blocking glutamine influx through SLC1A5, the primary glutamine transporter^15,16. SLC38A2 can serve as a redundant glutamine transporter to compensate the deficiency of SLC1A5^17.

[4] = gilteritinib paired with dinaciclib or EPZ015666
[5] = gilteritinib paired with dinaciclib or EPZ015666, dinaciclib 2 hours then washed off, others 48-96 hours

CCc1nc(C(N)=O)c(Nc2ccc(N3CCC(N4CCN(C)CC4)CC3)c(OC)c2)nc1NC1CCOCC1 [gilteritinib]
mean survival time (MOLM-13 luciferase cells): 39 days
maximum synergy (drug concentration) (MV4-11 cells; [4]): 0.1 to 8 nM
increase of necroptotic/apoptotic cells vs scrambled control ([1]; knockdown of CDK9): 9 fold
increase of necroptotic/apoptotic cells vs scrambled control ([1]; knockdown of DHODH): 5 fold
increase of necroptotic/apoptotic cells vs scrambled control ([1]; knockdown of PRMT5): 2.6 fold
synergy range (drug concentration) (MOLM-13 cells [2]; [5]): 2 to 10 nM

O=C(NC[C@H](O)CN1CCc2ccccc2C1)c1cc(NC2COC2)ncn1 [EPZ015666]
maximum synergy (drug concentration) (MV4-11 cells; in combination with 0.1-8 nM gilteritinib): 3000 to 100000 nM
synergy range (drug concentration) (MOLM-13 cells [2]; in combination with 2-10 nM gilteritinib): 1000 to 100000 nM

CCc1cnn2c(NCc3ccc[n+]([O-])c3)cc(N3CCCC[C@H]3CCO)nc12 [dinaciclib]
mean survival time (MOLM-13 luciferase cells): 27.5 days
maximum synergy (drug concentration) (MV4-11 cells; [4]): 0.0075 to 0.01 nM
synergy range (drug concentration) (MOLM-13 cells [2]; [5]): 0.0075 to 0.01 nM

O=C(Cc1cccc(OC(F)(F)F)c1)Nc1ccc(CCCCc2nnc(NC(=O)Cc3ccccn3)s2)nn1 [telaglenastat]
cytotoxic effect in combination with gilteritinib (MOLM-13 cells [3]): synergistic cytotoxic effect
cytotoxic effect in combination with midostaurin (MOLM-13 cells [3]): synergistic cytotoxic effect
